# Test results published in PubChem BioAssay AID1188 (EPA DSSTox, 2008).
# Calls of active or inactive are those of the source.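 Rule for the calls: active = a concentration killing half the fathead minnows in the acute test was determined; inconclusive = some fish died but not half at top dose; inactive = no fish died even at top dose.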
# Test system: Fathead minnow (Pimephales promelas) acute toxicity, lethality
# Assay: DSSTox (EPAFHM) EPA Fathead Minnow Acute Toxicity
# Description: The EPA Fathead Minnow Acute Toxicity database was generated by the U.S. EPA Mid-Continental Ecology Division (MED) for the purpose of developing an expert system to predict acute toxicity from chemical structure based on mode of action considerations. […] A second valuable aspect of this database, from a QSAR modeling perspective, is the inclusion of general mode-of-action (MOA) classifications of acute toxicity response for individual chemicals derived from study results. MOA assignments are biologically based classifications, allowing definition of chemical similarity based upon biological activity instead of organic chemistry functional class as most commonly employed in QSAR study. MOA classifications should strengthen the scientific basis for construction of individual QSARs. However, it is cautioned that the broad MOA categorizations should not be construed to represent a single molecular mechanism; for example, CNS seizure agents and respiratory inhibitors are known to act through a variety of receptors. The EPA Fathead Minnow database and results have been used by EPA MED to build components of the ASTER prediction system, which incorporates MOA-based QSARs for the prediction of aquatic toxicity of environmental and industrial chemicals. Briefly, MOA classifications for individual chemicals, derived from experiments and provided in the EPA Fathead Minnow database, were used to derive substructural rules for assigning a new chemical to an MOA category based solely on chemical structure. Once a new chemical is assigned to an MOA category on this basis, the logP-based QSAR for that MOA category is applied.
# The DSSTox EPAFHM database (available from the DSSTox Source URL) includes information pertaining to organic chemical class assignments (ChemClass_FHM), acute toxicity in fathead minnow (LC50_mg), dose-response assessments (LC50_Ratio, ExcessToxicityIndex), behavioral assessments (FishBehaviorTest), joint toxicity MOA evaluations of mixtures (MOA_MixtureTest), and additional MOA evaluation of fish acute toxicity syndrome (FishAcuteToxSyndrome) in rainbow trout. All of these indicators, to the extent available, were considered in the determination of MOA and, additionally, were used to determine a level of confidence in the MOA assignment for each chemical (MOA_Confidence). […] Activity Score is mapping of LOG10 (1/LC50_mmol) activity values spanning activity range [MIN, MAX] onto Integer 1-100 Activity range, where 100 is highest potency and 1 is lowest. If Activity Outcome is "active": Activity Score = 100 * INTEGER[(log10(1/ LC50_mmol) - MIN)/([…])].
SMILES,Potency [µM],outcome
CCCCOC(=O)CCCCC(=O)OCCCC,14.1,–
OC1CCCCC1,7030,–
NCCCN,16100,–
CCOP(=S)(OCC)SCCSCC,9.95,–
Cc1cc(C)c(C#N)c(=O)[nH]1,1060,–
COc1ccccc1C(N)=O,794,–
c1ccc(CN2CCNCC2)cc1,269,–
CCCCCCC(=O)CCCCCC,–,inactive; moa not determined either due to lack of toxicity at saturation or late test res
CCCCCCCCCCCC(N)=O,–,inactive; moa not determined either due to lack of toxicity at saturation or late test res
CC(O)CCl (stereo not drawn),2590,–
C=C(C)C(=O)OCCOCC,175,–
OCCN1CCOCC1,20700,–
C(/C=C/c1ccccc1)=C\c1ccccc1,–,inactive; moa not determined either due to lack of toxicity at saturation or late test res
CCCCCC(C)=O,1150,–
Cc1ccc(C)c(O)c1C,60.2,–
BrCC1CCCCO1 (stereo not drawn),1150,–
O=[N+]([O-])c1cc([N+](=O)[O-])c2ccccc2c1O,14.5,–
CCCCCCCCOC(=O)c1ccccc1C(=O)OCCCCCCCC,–,inactive; moa not determined either due to lack of toxicity at saturation or late test res
O=[N+]([O-])c1ccc(O)cc1C(F)(F)F,44.1,–
CC1(C)C(C=C(Cl)Cl)C1C(=O)OCc1cccc(Oc2ccccc2)c1 (stereo not drawn),0.0409,–
Fc1ccc(Oc2ccc(F)cc2)cc1,5.48,–

SMILES,Potency [µM],outcome
CN(C)c1ccccn1,1040,–
COc1ccc(OC)c(C(=O)CBr)c1,2.55,–
CN(C)Cc1ccccc1,280,–
CC(=O)Nc1cccc(O)c1,7480,–
Cc1cc(C)c(O)c(C)c1,95.4,–
Oc1ccc(Oc2ccccc2)cc1,26.6,–
CCOP(=S)(OCC)SCSC(C)(C)C,0.0461,–
Nc1ccc(F)c(C(F)(F)F)c1,168,–
O=c1cc(-c2ccccc2)oc2ccccc12,15.7,–
CCCSCCCCSCCC,14.5,–
CC1=CC(=O)c2ccccc2C1=O,0.639,–
CCOC(=O)C(Cc1ccccc1)C(=O)OCC,21.7,–
Nc1ccc(Br)cc1,276,–
CC(=O)/C=C/C1=C(C)CCCC1(C)C,26.5,–
O=C(NC1CCCCC1)OCCCl,170,–
CCOCC,34500,–
CCO,319000,–
CC(=O)c1cccc(N)c1,2830,–
CCCC(C)=O,14400,–
ClCc1ccc(CCl)cc1,0.223,–
CCC(=O)c1ccc(N)cc1,979,–

SMILES,Potency [µM],outcome
Cc1cc(C(C)(C)C)c(O)c(C(C)(C)C)c1,1.65,–
CCCCOC(=O)c1ccc(C(=O)OCCCC)cc1,2.12,–
Nc1ccccc1,1130,–
CCCCOC(=O)c1ccccc1C(=O)OCCCC,3.59,–
Oc1ccc(Cl)cc1Cc1cc(Cl)ccc1O,1.15,–
Cc1ccccc1C#N,382,–
COc1cc(OC)c(OC)cc1C=O,252,–
CCCCCCOc1ccc(N)cc1,15.6,–
CCCCCCCO,297,–
CCC(C)c1cc([N+](=O)[O-])cc([N+](=O)[O-])c1O (stereo not drawn),2.23,–
COc1ccc(OC)cc1,847,–
Nc1ccc(Cl)c(Cl)c1,46.7,–
CC(=O)c1cccn1C,1280,–
C=CC=O,0.303,–
Nc1c(Cl)c(Cl)cc(Cl)c1Cl,1.17,–
CC1(N)CCC(C(C)(C)N)CC1 (stereo not drawn),383,–
Cc1nc(C)c(C)o1,4040,–
CC(C)(C)c1cc(C(C)(C)C)c(O)c(C(C)(C)C)c1,0.232,–
C=CC(Cl)CCl (stereo not drawn),65.4,–
CC(=O)Nc1ccc(O)cc1,5390,–
c1ccc(SSc2ccccc2)cc1,0.504,–
